Where a SMILES comes first, the peptide text is derived from it. Bridges are numbered along the chain shown (N, C = ends). [ ]: non-standard residue; d: D form. 2Nal = N[C@@H](Cc1ccc2ccccc2c1)C(=O)O; d2Nal = N[C@H](Cc1ccc2ccccc2c1)C(=O)O
Experiments:
adenosine1 receptor = molecular target: T1, adenosine1 receptor (Rattus norvegicus, UniProt P25099); assay: Adenosine membrane receptor assay, rat cerebral cortex; format: binding; conditions: 1 μM
T1 construct: rat cerebral cortex (CCKB, PYY, neurotensin, α1 -adrenergic, α2 -adrenergic, muscarinic cholinergic, neural benzodiazepine, peripheral benzodiazepine, adenosine,; from tissue; host or cells: rat cerebral cortex membranes
T1 sequence (P25099 whole entry): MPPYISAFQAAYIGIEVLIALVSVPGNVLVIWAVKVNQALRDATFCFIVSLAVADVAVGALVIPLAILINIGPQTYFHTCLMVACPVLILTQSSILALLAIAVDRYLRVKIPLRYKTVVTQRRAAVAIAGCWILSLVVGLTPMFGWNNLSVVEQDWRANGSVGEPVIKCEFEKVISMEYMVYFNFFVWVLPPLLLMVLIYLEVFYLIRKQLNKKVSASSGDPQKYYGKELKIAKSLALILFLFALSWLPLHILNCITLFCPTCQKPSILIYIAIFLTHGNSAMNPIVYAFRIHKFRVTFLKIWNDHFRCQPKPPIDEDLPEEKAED

α1-adrenergic receptor = assay: α1-adrenergic membrane receptor assay, rat cerebral cortex; format: binding; conditions: 1 μM
[1] = test system: endothelin-1-stimulated increases in [3H]IP; assay: Endothelin-1-stimulated [3H]IP in C-6 glioblastoma cells; format: cell-based, rat
Protocol: (§1) Total phosphoinositides in C-6 cells and in NMB-R transfected cells were determined as described previously, with minor modifications [Benya, R. V. et al. Mol. Pharmacol. 42:1058 (1992); and Wang, L-H. et al. Biochem. Jo 286:641 (1992)]. Cells were grown to confluence in 24-well plates and then loaded with 100 μCi/ml myo-[2-^3 H]inositol in Dulbecco's modified essential medium with 2% fetal bovine serum at 37° C. for 48 hrs. Cells were washed and incubated in phosphoinositide buffer (standard buffer additionally containing 10 mM LiCl, 20 mM HEPES, 2 mM CaCl2, 2% BSA, and 1.2 mM MgSO4) for 15 min and then for 60 min at 37° C. with agonists at various concentrations or with 3 nM NMB (a half-maximal effective concentration) and possible antagonists at different concentrations. Reactions were halted using ice-cold 1% HCl in methanol, and the inositol phosphates (IP) were isolated as described previously [Bologna, M. et al. Cancer 63:1714 (1989); and Endo, T. et al. J. Endocrinolo 131:313 (1991)]. Briefly, after loading of the anion exchange column, free [^3 H]glycerophosphorylinositol was removed by washing with 5 mM disodium tetraborate in 60 mM sodium formate. Total [^3 H]inositol phosphates were then eluted using 100 mM formic acid in 1.0M ammonium formate as described previously [Benya, R. V. et al. Mol. Pharmacol. 42:1058 (1992); and Wang, L-H. et al. Biochem. J. 286:641 (1992 )].
(§2) without SSoctapeptide analog added. C6 glioblastoma cells (50,000
(§3) cells/well) were incubated with myo[2^3 H]inositol for two days,
(§4) washed and then incubated with or without the indicated peptides for 60
(§5) minutes at 37° C. in phosphoinositide buffer containing 10 mM LiCl
(§6) as described in METHODS. [^3 H]IP was measured using Dowex AG1X8 anio

sigma opioid receptor = molecular target: T2, sigma opioid receptor (Cavia porcellus, UniProt Q60492); assay: Sigma opioid membrane receptor assay, guinea pig cerebral; format: binding; conditions: 1 μM
T2 construct: guinea pig cerebral (N1, histamine H1, and sigma opioid membrane receptor assays); from tissue; host or cells: guinea pig cerebral membranes
T2 sequence (Q60492 whole entry): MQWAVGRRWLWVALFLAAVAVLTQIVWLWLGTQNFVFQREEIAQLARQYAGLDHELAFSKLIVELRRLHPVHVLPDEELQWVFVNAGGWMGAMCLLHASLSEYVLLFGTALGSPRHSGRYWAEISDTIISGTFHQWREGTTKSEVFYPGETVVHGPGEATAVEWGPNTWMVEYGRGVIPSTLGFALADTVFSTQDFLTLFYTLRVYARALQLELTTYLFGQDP

dopamine2 receptor = molecular target: T3, dopamine2 receptor (Rattus norvegicus, UniProt P61169); assay: Dopamine2 membrane receptor assay, rat corpus striatum; format: binding; conditions: 1 μM
T3 construct: rat corpus striatum (dopamine1 and dopamine2 membrane receptor assays); from tissue; host or cells: rat corpus striatum membranes
T3 sequence (P61169 whole entry): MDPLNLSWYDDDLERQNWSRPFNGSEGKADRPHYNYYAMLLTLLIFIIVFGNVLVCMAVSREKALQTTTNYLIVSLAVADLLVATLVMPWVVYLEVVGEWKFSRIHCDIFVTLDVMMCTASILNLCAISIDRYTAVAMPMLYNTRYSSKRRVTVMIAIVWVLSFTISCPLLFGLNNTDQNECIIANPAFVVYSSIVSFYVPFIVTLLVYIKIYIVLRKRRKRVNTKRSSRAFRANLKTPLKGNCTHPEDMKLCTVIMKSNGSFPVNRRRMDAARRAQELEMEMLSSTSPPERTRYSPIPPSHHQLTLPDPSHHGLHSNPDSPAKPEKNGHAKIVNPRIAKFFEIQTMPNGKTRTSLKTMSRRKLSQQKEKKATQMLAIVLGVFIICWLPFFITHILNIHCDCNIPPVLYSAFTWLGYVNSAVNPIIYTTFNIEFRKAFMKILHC

CCKA receptors = molecular target: T4, CCKA receptors (Rattus norvegicus, UniProt P30551); assay: CCKA receptor assay, 125I-CCK-8, rat pancreatic membranes; format: binding
T4 construct: rat pancreas (CCKA receptor assay); from tissue; host or cells: rat pancreas membranes
T4 sequence (P30551 whole entry): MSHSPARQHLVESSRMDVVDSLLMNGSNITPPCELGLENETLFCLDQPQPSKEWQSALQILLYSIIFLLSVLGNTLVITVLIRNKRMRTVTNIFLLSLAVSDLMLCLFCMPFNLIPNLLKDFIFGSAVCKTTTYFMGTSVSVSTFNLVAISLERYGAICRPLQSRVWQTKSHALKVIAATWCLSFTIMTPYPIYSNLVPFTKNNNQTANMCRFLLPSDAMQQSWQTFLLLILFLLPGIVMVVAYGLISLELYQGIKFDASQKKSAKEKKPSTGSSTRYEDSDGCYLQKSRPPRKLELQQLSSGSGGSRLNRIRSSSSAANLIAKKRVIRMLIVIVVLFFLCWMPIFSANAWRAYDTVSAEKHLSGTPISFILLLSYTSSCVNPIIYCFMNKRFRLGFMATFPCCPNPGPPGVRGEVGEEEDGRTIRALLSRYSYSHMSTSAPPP

[2] = test system: GRP receptors on rat pancreatic acini; assay: Binding of 125I-[Tyr4]bombesin to pancreatic acini; conditions: NMB-R transfected cells vs GRP-R on rat pancreatic acini
Source text: Nonsaturable binding was<10% of total binding in all experiments.

endothelinA = molecular target: T5, endothelinA (Rattus norvegicus, UniProt P26684); assay: EtA membrane receptor assay, A10 smooth muscle cells; format: binding; conditions: 1 μM
T5 construct: A10 smooth muscle cells (EtA membrane receptor assay); endogenous in cells; host or cells: A10 smooth muscle cells (membranes)
T5 sequence (P26684 21-426): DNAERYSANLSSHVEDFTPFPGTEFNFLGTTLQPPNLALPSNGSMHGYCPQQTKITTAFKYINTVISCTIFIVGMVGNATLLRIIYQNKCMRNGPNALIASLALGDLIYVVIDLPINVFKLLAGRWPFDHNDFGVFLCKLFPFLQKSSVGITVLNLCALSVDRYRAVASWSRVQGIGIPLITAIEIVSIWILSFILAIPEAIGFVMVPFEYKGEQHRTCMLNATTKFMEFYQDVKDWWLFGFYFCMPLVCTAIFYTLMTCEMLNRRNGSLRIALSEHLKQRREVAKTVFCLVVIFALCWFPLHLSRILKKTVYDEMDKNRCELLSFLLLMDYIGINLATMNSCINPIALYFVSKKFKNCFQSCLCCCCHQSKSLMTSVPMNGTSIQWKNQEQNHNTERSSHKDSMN

histamine H1 receptor = molecular target: T6, histamine H1 receptor (Cavia porcellus, UniProt P31389); assay: Histamine H1 membrane receptor assay, guinea pig cerebral; format: binding; conditions: 1 μM
T6 construct: guinea pig cerebral (N1, histamine H1, and sigma opioid membrane receptor assays); from tissue; host or cells: guinea pig cerebral membranes
T6 sequence (P31389 whole entry): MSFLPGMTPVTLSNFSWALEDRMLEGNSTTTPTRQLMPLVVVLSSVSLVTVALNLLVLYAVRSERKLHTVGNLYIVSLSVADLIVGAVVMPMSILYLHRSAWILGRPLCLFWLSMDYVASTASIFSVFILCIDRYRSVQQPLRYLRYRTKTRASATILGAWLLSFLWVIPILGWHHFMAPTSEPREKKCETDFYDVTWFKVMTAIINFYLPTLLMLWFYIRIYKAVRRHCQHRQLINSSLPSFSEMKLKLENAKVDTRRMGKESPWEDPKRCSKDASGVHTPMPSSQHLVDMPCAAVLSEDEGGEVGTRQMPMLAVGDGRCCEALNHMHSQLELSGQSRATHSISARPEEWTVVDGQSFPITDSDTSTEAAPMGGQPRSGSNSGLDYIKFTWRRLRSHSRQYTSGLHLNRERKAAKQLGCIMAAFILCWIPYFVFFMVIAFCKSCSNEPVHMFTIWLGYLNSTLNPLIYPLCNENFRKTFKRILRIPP

somatostatin receptors = molecular target: T7, somatostatin receptors (Rattus norvegicus, UniProt P30680); assay: Somatostatin membrane receptor assay, 125I-[Tyr11]SS-14, AR 42J cell membranes; format: binding; conditions: Cheng method; table prints no unit (b360 gives nM for a Table 4 value); read-out: affinity, 125I-[Tyr11]SS-14, AR 42J Cell Membranes (somatostatin receptors)
T7 construct: endogenous in cells; host or cells: rat AR 42J pancreatic acinar tumor cell membranes
T7 sequence (P30680 whole entry): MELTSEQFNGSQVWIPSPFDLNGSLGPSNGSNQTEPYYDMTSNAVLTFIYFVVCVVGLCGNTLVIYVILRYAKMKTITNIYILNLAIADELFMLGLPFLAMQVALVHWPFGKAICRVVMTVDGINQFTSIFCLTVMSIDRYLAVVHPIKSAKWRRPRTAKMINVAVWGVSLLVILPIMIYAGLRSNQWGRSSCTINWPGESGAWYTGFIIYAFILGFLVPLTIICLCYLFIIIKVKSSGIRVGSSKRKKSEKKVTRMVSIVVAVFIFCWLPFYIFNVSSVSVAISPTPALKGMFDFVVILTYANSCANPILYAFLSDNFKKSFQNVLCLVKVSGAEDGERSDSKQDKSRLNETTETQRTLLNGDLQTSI

PYY receptor = assay: PYY membrane receptor assay, rat cerebral cortex; format: binding; conditions: 1 μM
NMB receptor = molecular target: T8, NMB receptor (Rattus norvegicus, UniProt P24053); assay: [3H]IP in C-6 glioblastoma cells (alone or NMB-stimulated); format: cell-based; set-up: a full length NMB-preferring bombesin receptor clone generated from rat esophagus; expressed in transfected cells
T8 sequence (P24053 1-390): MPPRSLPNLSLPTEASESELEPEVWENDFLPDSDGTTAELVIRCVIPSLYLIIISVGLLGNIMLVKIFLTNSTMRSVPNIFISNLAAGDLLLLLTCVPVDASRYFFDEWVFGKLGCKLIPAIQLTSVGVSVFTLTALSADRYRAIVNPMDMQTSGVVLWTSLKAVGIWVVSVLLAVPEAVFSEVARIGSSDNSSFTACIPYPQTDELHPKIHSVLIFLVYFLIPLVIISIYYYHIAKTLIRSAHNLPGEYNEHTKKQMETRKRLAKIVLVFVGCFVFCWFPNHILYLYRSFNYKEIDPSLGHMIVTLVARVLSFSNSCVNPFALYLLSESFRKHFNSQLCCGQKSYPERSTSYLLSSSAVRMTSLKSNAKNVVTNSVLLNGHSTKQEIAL
Protocol: as §1, §2, §3, §4, §5, §6

GRP receptor [3] = molecular target: T9, GRP receptor (Rattus norvegicus, UniProt P52500); assay: GRP membrane receptor assay, 125I-[Tyr4]Bn, AR 42J cell membranes; format: binding; set-up: endogenous in cells; host or cells: rat AR 42J pancreatic acinar tumor cell membranes; conditions: read-out: affinity, 125I-[Tyr4]Bn, AR 42J Cell Membranes (GRP receptors); Cheng method; unit inferred
T9 sequence (P52500 whole entry): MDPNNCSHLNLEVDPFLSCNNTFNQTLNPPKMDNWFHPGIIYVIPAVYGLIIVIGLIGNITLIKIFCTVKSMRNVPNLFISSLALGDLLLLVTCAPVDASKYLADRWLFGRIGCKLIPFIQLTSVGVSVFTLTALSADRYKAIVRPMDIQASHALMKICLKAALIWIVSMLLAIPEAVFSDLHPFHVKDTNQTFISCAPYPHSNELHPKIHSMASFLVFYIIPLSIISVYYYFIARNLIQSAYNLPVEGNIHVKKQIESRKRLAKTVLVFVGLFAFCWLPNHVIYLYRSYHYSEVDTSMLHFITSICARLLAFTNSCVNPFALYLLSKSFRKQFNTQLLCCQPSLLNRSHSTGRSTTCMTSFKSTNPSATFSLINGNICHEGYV

bradykinin1 = assay: Bradykinin membrane receptor assay, [3H]bradykinin; format: binding; conditions: 1 μM
GRP receptor [4] = molecular target: T9, GRP receptor; assay: Amylase release from rat pancreatic acini (alone or Bn-stimulated); format: cell-based; set-up: from tissue; host or cells: dispersed pancreatic acini
Summary of the method: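 Rat pancreatic acini incubated 30 min at 37° C without additives or with somatostatin octapeptide analog, Bn, NMB or combinations. Amylase release expressed as percent of total cellular amylase released during incubation; for inhibition, somatostatin analog (10 μM) tested on 0.3 nM Bn-stimulated release.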

## CC(C)[C@@H]1NC(=O)[C@H](CCCCN)NC(=O)[C@@H](Cc2c[nH]c3ccccc23)NC(=O)[C@H](Cc2ccc(O)cc2)NC(=O)[C@@H](NC(=O)[C@H](N)Cc2ccc3ccccc3c2)CSSC[C@@H](C(=O)N[C@@H](Cc2ccc3ccccc3c2)C(N)=O)NC1=O [Analog #1, H2 -D-Nal-Cys-Tyr-D-Trp-Lys-Val-Cys-Nal-NH2] (H-[d2Nal]CY[dW]KVC[2Nal]-NH2; disulfide 2-7)
adenosine1 receptor
  inhibition of binding to adenosine1 receptors: did not inhibit binding
α1-adrenergic receptor
  inhibition of binding to α1-adrenergic receptors: did not inhibit binding
[1]; analog 10 μM, ET-1 alone 11.0 ± 2.1
  [3H]IP with ET-1 (0.1 nM): 10.9 ± 1.8 dpm × 10^3
[1]; listed as Cycle SS-octa
  effect on endothelin-1-stimulated increases in [3H]IP in C-6 cells: did not inhibit
[1]; listed as cyclo SS octa
  effect on endothelin-1-stimulated increases in [3H]IP in C-6 cells: no effect
Sigma opioid receptor
  inhibition of binding to sigma opioid receptors: did not inhibit binding
dopamine2 receptor
  inhibition of binding to dopamine2 receptors: did not inhibit binding
CCKA receptors; 1 μM
  inhibition of binding to CCKA receptors: did not inhibit binding
CCKA receptors; rat pancreatic membranes, read-out: affinity, inhibition of 125I-CCK-8 binding to CCKA receptors
  Ki: 5.537 ± 0.007 µM
[2]
  fold greater affinity for NMB than GRP receptors: 84 fold
[2]; listed as cyclo SS-octa
  fold greater affinity for NMB than GRP receptors: 100 fold
endothelinA
  inhibition of binding to endothelinA receptors: did not inhibit binding
Histamine H1 receptor
  inhibition of binding to histamine H1 receptors: did not inhibit binding
Somatostatin receptors
  Ki: 0.8 ± 0.5 nM
PYY receptor
  inhibition of binding to PYY receptors: did not inhibit binding
NMB receptor
  effect on NMB-stimulated increases in [3H]IP in C-6 cells: inhibited
NMB receptor; analog 10 μM, 60 min 37° C., control 7.2 ± 1.0
  [3H]IP, no peptide added: 7.4 ± 1.3 dpm × 10^3
NMB receptor; analog 10 μM, NMB alone 21.0 ± 1.8
  [3H]IP with NMB (10 nM): 7.5 ± 1.0 dpm × 10^3
GRP receptor [3]
  Ki: 2870 ± 520 nM
bradykinin1
  inhibition of binding to bradykinin1 receptors: did not inhibit binding
GRP receptor [4]; 0.3 nM Bn
  effect on Bn-stimulated amylase release: did not inhibit
GRP receptor [4]; analog 10 μM alone, control 4 ± 1
  Amylase Release, analog Alone (10 μM): 5 ± 1 % total
GRP receptor [4]; analog 10 μM plus Bn 0.3 nM, Bn without analog 15 ± 1
  Amylase Release, analog Plus Bn (0.3 nM): 15 ± 2 % total
GRP receptor [4]; read-out: IC50 Amylase Release, GRP Receptor, Rat Pancreatic Acini
  IC50: > 10 µM

— patent publication US5462926A (Biomeasure, Inc., priority 1993, dated 1995)
